Measured values taken from PMC10821124, “Dimeric 3,5-Bis(benzylidene)-4-piperidones: Tumor-Selective Cytotoxicity and Structure-Activity Relationships” (Medicines, 2024).

Assays:
[1] = test system: human promyelocytic leukemia HL-60 cells; assay: Cytotoxicity, MTT method, HL-60 cells; assay type: cell-based; details: for CC50: Homo sapiens, HL-60, 48 h, MTT, mean ± SD, read-out: CC50 HL-60; for SI (selectivity index) HL-60: average CC50 non-malignant cells / CC50 HL-60
Experimental: (§1) Human promyelocytic leukemia [HL-60 (RCB3683)] (purchased from Riken Cell Bank, Tsukuba, Japan) was cultured at 37 °C in RPMI1640 medium (Fujifilm Wako Pure Chemical Co., Osaka, Japan) supplemented with 10% heat (56 °C, 30 min) inactivated FBS (Sigma-Aldrich Inc. St. Louis, MO, USA), 100 U/mL penicillin G, and 100 µg/mL streptomycin sulfate in a humidified 5% CO2 incubator (MCO-170 AICUVD-P, Panasonic Healthcare Co., Ltd., Gunma, Japan). Human oral squamous cell carcinoma (OSCC) cell lines derived from tongue [HSC-2 (RCB1945), HSC-3 (RCB1975), HSC-4 (RCB1902)] (Riken Cell Bank), and human normal oral cells (gingival fibroblasts, HGF; pulp cell, HPC; periodontal ligament fibroblast, HPLF), established from the first premolar extracted tooth in the lower jaw and periodontal tissues of a child, according to the guidelines of Meikai University Ethic Committee (No. A0808), were cultured in DMEM medium (Fujifilm Wako Pure Chemical Co.) supplemented with 10% FBS and antibiotics. The compounds in Series 2–4 were evaluated against HL-60, HSC-2, HSC-3, HSC-4, HGF, HPC, and HPLF cells based on a literature procedure, as described previously. In brief, near confluent cells were incubated in triplicate for 48 h at 37 °C with different concentrations ([…], 6.3, 12.5, 25, 50, 100 µM) of the compounds; then, viable cell numbers were measured using the MTT method. From the dose–response curve, a 50% cytotoxic concentration (CC50) was determined. All samples were dissolved in dimethylsulfoxide (DMSO). The toxicity of DMSO alone was calculated and subtracted. The CC50 values were determined from dose–response curves.

[2] = test system: human oral squamous cell carcinoma HSC-2 cells; assay: Cytotoxicity, MTT method, HSC-2 cells; assay type: cell-based; details: for CC50: Homo sapiens, HSC-2, 48 h, MTT, mean ± SD, read-out: CC50 HSC-2; for SI (selectivity index) HSC-2: average CC50 non-malignant cells / CC50 HSC-2
Experimental: as §1

[3] = test system: human oral squamous cell carcinoma HSC-3 cells; assay: Cytotoxicity, MTT method, HSC-3 cells; assay type: cell-based; details: for CC50: Homo sapiens, HSC-3, 48 h, MTT, mean ± SD, read-out: CC50 HSC-3; for SI (selectivity index) HSC-3: average CC50 non-malignant cells / CC50 HSC-3
Experimental: as §1

[4] = test system: human oral squamous cell carcinoma HSC-4 cells; assay: Cytotoxicity, MTT method, HSC-4 cells; assay type: cell-based; details: for CC50: Homo sapiens, HSC-4, 48 h, MTT, mean ± SD, read-out: CC50 HSC-4; for SI (selectivity index) HSC-4: average CC50 non-malignant cells / CC50 HSC-4
Experimental: as §1

[5] = Cytotoxicity, MTT method, HGF non-malignant cells; assay type: cell-based, human; details: human, gingival fibroblasts (HGF), non-malignant, mean ± SD
Experimental: as §1

[6] = Cytotoxicity, MTT method, HPC non-malignant cells; assay type: cell-based, human; details: human, pulp cells (HPC), non-malignant, mean ± SD
Experimental: as §1

[7] = Cytotoxicity, MTT method, HPLF non-malignant cells; assay type: cell-based, human; details: human, periodontal ligament fibroblasts (HPLF), non-malignant, mean ± SD
Experimental: as §1

[8] = test system: human tumour cell lines HL-60, HSC-2, HSC-3, HSC-4; assay: Cytotoxicity, average over the four human tumour cell lines; assay type: cell-based; details: for CC50: Homo sapiens, average of HL-60, HSC-2, HSC-3, HSC-4, read-out: AVE. CC50, human tumour cell lines; for AVE SI: average of the four SI values; for PSE (potency-selectivity expression): product of reciprocal of average CC50 (neoplastic cells) and average SI times 100; for CC50 values in all four bioassays (range in words): HL-60, HSC-2, HSC-3, HSC-4
Experimental: as §1

[9] = Cytotoxicity, average over the three human normal cells; assay type: cell-based; details: human, average of HGF, HPC, HPLF; read-out: AVE CC50, human normal cells
Experimental: as §1

SMILES | CC50 [1] | SI (selectivity index) HL-60 [1] | CC50 [2] | SI (selectivity index) HSC-2 [2] | CC50 [3] | SI (selectivity index) HSC-3 [3] | CC50 [4] | SI (selectivity index) HSC-4 [4] | CC50 at 48 h [5] | CC50 at 48 h [6] | CC50 at 48 h [7] | CC50 [8] | AVE SI [8] | CC50 at 48 h [9] | PSE (potency-selectivity expression) [8] | CC50 values in all four bioassays (range in words) [8]
Cc1ccc(/C=C2\CN(C(=O)C(=O)N3C/C(=C\c4ccc(C)cc4)C(=O)/C(=C/c4ccc(C)cc4)C3)C/C(=C\c3ccc(C)cc3)C2=O)cc1 [Compound 2e] | 2700 ± 780 nM | 16.7 | 1800 ± 250 nM | 25.0 | 4300 ± 1100 nM | 10.5 | 2300 ± 250 nM | 19.6 | 45000 ± 4600 nM | 23000 ± 1200 nM | 67000 ± 4500 nM | 2780 nM | 18.0 | 45000 nM |  | 
O=C1/C(=C/c2ccccc2)CN(CCCN2C/C(=C\c3ccccc3)C(=O)/C(=C/c3ccccc3)C2)C/C1=C\c1ccccc1 [Compound 4] | 180 ± 11 nM | 22.2 | 210 ± 32 nM | 19.1 | 350 ± 110 nM | 11.4 | 83 ± 21 nM | 48.2 | 3000 ± 210 nM | 3700 ± 2000 nM | 5300 ± 610 nM | 210 nM | 25.2 | 4000 nM | > 100 | 
COc1cc(/C=C2\CN(C(=O)C(=O)N3C/C(=C\c4cc(OC)c(OC)c(OC)c4)C(=O)/C(=C/c4cc(OC)c(OC)c(OC)c4)C3)C/C(=C\c3cc(OC)c(OC)c(OC)c3)C2=O)cc(OC)c1OC [Compound 2g] | 37 ± 2 nM | 15.4 | 63 ± 9 nM | 9.05 | 35 ± 6 nM | 16.3 | 88 ± 29 nM | 6.48 | 470 ± 140 nM | 280 ± 70 nM | 950 ± 12 nM | 60 nM | 11.8 | 570 nM | > 100 | double-digit nanomolar range
O=C1/C(=C/c2ccc(Cl)c(Cl)c2)CN(C(=O)C(=O)N2C/C(=C\c3ccc(Cl)c(Cl)c3)C(=O)/C(=C/c3ccc(Cl)c(Cl)c3)C2)C/C1=C\c1ccc(Cl)c(Cl)c1 [Compound 2d] | 8400 ± 17 nM | 4.08 | 5900 ± 120 nM | 5.81 | 8400 ± 870 nM | 4.08 | 6400 ± 150 nM | 5.36 | 36000 ± 3100 nM | 23000 ± 3100 nM | 44000 ± 3200 nM | 7280 nM | 4.83 | 34300 nM |  | 
COc1cc(/C=C2\CN(C(=O)CC(=O)N3C/C(=C\c4cc(OC)c(OC)c(OC)c4)C(=O)/C(=C/c4cc(OC)c(OC)c(OC)c4)C3)C/C(=C\c3cc(OC)c(OC)c(OC)c3)C2=O)cc(OC)c1OC [Compound 3g] | 30 ± 0.2 nM | 6.33 | 65 ± 16 nM | 2.92 | 35 ± 5 nM | 5.43 | 38 ± 9 nM | 5.00 | 93 ± 20 nM | 180 ± 30 nM | 300 ± 47 nM | 40 nM | 4.92 | 190 nM | > 100 | double-digit nanomolar range
COc1ccc(/C=C2\CN(C(=O)CC(=O)N3C/C(=C\c4ccc(OC)c(OC)c4)C(=O)/C(=C/c4ccc(OC)c(OC)c4)C3)C/C(=C\c3ccc(OC)c(OC)c3)C2=O)cc1OC [Compound 3f] | 260 ± 21 nM | 5.77 | 340 ± 76 nM | 4.41 | 200 ± 140 nM | 7.50 | 128 ± 14 nM | 11.7 | 1100 ± 84 nM | 1600 ± 78 nM | 1800 ± 50 nM | 230 nM | 7.35 | 1500 nM |  | 
O=C1/C(=C/c2ccccc2)CN(C(=O)C(=O)N2C/C(=C\c3ccccc3)C(=O)/C(=C/c3ccccc3)C2)C/C1=C\c1ccccc1 [Compound 2a] | 110 ± 9 nM | 29.6 | 85 ± 13 nM | 38.4 | 150 ± 22 nM | 21.7 | 200 ± 11 nM | 16.3 | 3800 ± 520 nM | 680 ± 73 nM | 5300 ± 500 nM | 140 nM | 26.5 | 3260 nM | > 100 | 
Cc1ccc(/C=C2\CN(C(=O)CC(=O)N3C/C(=C\c4ccc(C)cc4)C(=O)/C(=C/c4ccc(C)cc4)C3)C/C(=C\c3ccc(C)cc3)C2=O)cc1 [Compound 3e] | 1400 ± 150 nM | 17.6 | 1600 ± 390 nM | 15.4 | 2200 ± 200 nM | 11.2 | 1900 ± 150 nM | 13.0 | 20000 ± 1300 nM | 19000 ± 2700 nM | 35000 ± 4200 nM | 1780 nM | 14.3 | 24700 nM |  | 
COc1ccc(/C=C2\CN(C(=O)C(=O)N3C/C(=C\c4ccc(OC)c(OC)c4)C(=O)/C(=C/c4ccc(OC)c(OC)c4)C3)C/C(=C\c3ccc(OC)c(OC)c3)C2=O)cc1OC [Compound 2f] | 190 ± 26 nM | 65.8 | 420 ± 25 nM | 29.8 | 230 ± 97 nM | 54.4 | 160 ± 24 nM | 78.1 | 24000 ± 1100 nM | 2400 ± 700 nM | 11000 ± 980 nM | 250 nM | 57.0 | 12500 nM |  | 
